Data taken from publication PMC6637749 (Journal of medicinal chemistry, 2018).

Experiments:
[1] = system: panel of melanoma cell lines (A375, M14, RPMI7951); assay: Antiproliferative activity, panel of melanoma cell lines; assay type: cell-based, human; conditions: for IC50: Homo sapiens, 72 h, read-out: IC50 values, range over the melanoma cell lines
A375 melanoma xenograft = assay type: in vivo; conditions: doses up to 30 mg/kg i.p., nude mice
Bovine brain tubulin = Bovine brain tubulin (Bos taurus, UniProt P81947+Q6B856); assay: Tubulin polymerization assay; assay type: biochemical; conditions: 10 μM compound, absorbance at 340 nm, 37 °C; vehicle control Vmax = 27
Sequence of Bovine brain tubulin (Q6B856 whole entry): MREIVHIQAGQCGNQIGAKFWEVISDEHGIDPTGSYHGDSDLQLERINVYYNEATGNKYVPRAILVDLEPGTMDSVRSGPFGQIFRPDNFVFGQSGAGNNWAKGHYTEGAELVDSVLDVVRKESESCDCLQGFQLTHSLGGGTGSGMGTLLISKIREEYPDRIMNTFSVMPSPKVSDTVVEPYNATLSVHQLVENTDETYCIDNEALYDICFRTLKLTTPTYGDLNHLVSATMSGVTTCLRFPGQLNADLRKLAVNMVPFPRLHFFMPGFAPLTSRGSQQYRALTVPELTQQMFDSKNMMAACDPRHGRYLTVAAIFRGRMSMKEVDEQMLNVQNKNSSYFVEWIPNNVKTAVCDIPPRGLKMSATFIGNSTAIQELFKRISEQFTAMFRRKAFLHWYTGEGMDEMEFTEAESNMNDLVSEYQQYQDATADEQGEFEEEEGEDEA
Sequence of Bovine brain tubulin (P81947 whole entry): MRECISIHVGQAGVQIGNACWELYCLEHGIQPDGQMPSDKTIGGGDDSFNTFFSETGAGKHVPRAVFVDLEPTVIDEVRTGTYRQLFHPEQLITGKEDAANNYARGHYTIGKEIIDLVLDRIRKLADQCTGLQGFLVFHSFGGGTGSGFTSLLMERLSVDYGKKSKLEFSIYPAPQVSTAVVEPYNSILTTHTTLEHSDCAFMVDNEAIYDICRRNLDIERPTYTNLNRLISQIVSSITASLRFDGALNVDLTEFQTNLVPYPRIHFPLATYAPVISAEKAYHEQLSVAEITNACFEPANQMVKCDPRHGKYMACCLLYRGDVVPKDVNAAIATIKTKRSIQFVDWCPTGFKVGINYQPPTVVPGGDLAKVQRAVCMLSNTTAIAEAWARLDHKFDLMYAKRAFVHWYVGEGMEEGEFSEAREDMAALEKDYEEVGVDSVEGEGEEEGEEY

[2] = system: docetaxel-resistant DU145/TxR prostate cancer cell line; assay: Cytotoxicity; assay type: cell-based; conditions: at concentrations up to 1 μM

| SMILES | IC50 [1] [nM] | also measured |
| --- | --- | --- |
| O=C(c1ccc2c(c1)OCCO2)c1c[nH]c(-c2c[nH]c3ccccc23)n1 [13a, (2-(1H-Indol-3-yl)-1H-imidazol-5-yl)(2,3-dihydrobenzo[b][1,4]-dioxin-6-yl)methanone] | 119 to 218 |  |
| COc1cc(C(=O)c2c[nH]c(-c3c[nH]c4ccccc34)n2)cc2c1OCCO2 [13c, (2-(1H-Indol-3-yl)-1H-imidazol-5-yl)(8-methoxy-2,3-dihydrobenzo[b][1,4]dioxin-6-yl)methanone] | 11.3 to 29.2 |  |
| COc1cc(C(=O)c2c[nH]c(-c3c[nH]c4ccccc34)n2)cc2c1OCO2 [13d, (2-(1H-Indol-3-yl)-1H-imidazol-5-yl)(7-methoxybenzo[d][1,3]-dioxol-5-yl)methanone] | 3.5 to 5.6 | fold more active than 13b ([1]; antiproliferative IC50 compared with 13b): 30 fold; fold more potent than 13c ([1]; antiproliferative IC50 compared with 13c): ~ 4 fold |
| COc1cc(C(=O)c2c[nH]c(-c3c[nH]c4ccccc34)n2)cc2c1OCCCO2 [13e, (2-(1H-Indol-3-yl)-1H-imidazol-5-yl)(9-methoxy-3,4-dihydro-2H-benzo[b][1,4]dioxepin-7-yl)methanone] | 32.2 to 47.7 |  |
| COc1cc(C(=O)c2c[nH]c(-c3c[nH]c4ccccc34)n2)cc2c1OC=CO2 [13f, (2-(1H-Indol-3-yl)-1H-imidazol-5-yl)(8-methoxybenzo[b][1,4]-diOXin-6-yl)methanone] | 1.1 to 3.3 | apparent toxicity (mouse weights and activities) (A375 melanoma xenograft): without causing apparent toxicity; tubulin polymerization Vmax (Bovine brain tubulin): 0 |
| COc1cc(C(=O)c2c[nH]c(-c3cccc4[nH]ccc34)n2)cc2c1OC=CO2 [compound 19, (2-(1H-Indol-4-yl)-1H-imidazol-5-yl)(8-methoxybenzo[b][1,4]-diOXin-6-yl)methanone] |  | fold reduced antiproliferative activity compared to 13f ([1]; compared with 13f): ~ 11 fold |
| COc1cc(C(=O)c2c[nH]c(-c3c[nH]c4cccc(C)c34)n2)cc2c1OC=CO2 [compound 25, (8-Methoxybenzo[b][1,4]dioxin-6-yl) (2-(4-methyl-1H-indol-3-yl)-1H-imidazol-5-yl)methanone] | 6.1 to 8.8 |  |
| CC(=O)O[C@H]1C(=O)[C@@]2(C)[C@H]([C@H](OC(=O)c3ccccc3)[C@]3(O)C[C@H](OC(=O)[C@H](O)[C@@H](NC(=O)c4ccccc4)c4ccccc4)C(C)=C1C3(C)C)[C@]1(OC(C)=O)CO[C@@H]1C[C@@H]2O [paclitaxel] |  | effect in DU145/TxR cells [2]: no effect was observed at all |
